# Assay results from patent US10221177B2 (HYDRA BIOSCIENCES, INC., priority 2014, dated 2019).
# Target: human TRPA1 (Homo sapiens (Human), UniProt O75762)
# Assay: In vitro inhibition of human TRPA1, whole cell patch configuration
# Format: cell-based
# Settings: current activation 10 μM AITC, tested concentrations 320 pM to 3.2 μM, read-out: hTRPA1 IC50
# Procedure, shortened: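 Compound antagonism measured from voltage ramps (±100 or ±80 mV, 400 ms, every 4 s from −40 mV), analysed at −80 and 80 mV, or at constant −60 mV. HEPES-buffered NaCl bath, pH 7.4, EGTA or 2 mM Ca2+; temperature set by perfusion, within ±2° C; no junction-potential correction.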
# Sequence of human TRPA1 (O75762 whole entry): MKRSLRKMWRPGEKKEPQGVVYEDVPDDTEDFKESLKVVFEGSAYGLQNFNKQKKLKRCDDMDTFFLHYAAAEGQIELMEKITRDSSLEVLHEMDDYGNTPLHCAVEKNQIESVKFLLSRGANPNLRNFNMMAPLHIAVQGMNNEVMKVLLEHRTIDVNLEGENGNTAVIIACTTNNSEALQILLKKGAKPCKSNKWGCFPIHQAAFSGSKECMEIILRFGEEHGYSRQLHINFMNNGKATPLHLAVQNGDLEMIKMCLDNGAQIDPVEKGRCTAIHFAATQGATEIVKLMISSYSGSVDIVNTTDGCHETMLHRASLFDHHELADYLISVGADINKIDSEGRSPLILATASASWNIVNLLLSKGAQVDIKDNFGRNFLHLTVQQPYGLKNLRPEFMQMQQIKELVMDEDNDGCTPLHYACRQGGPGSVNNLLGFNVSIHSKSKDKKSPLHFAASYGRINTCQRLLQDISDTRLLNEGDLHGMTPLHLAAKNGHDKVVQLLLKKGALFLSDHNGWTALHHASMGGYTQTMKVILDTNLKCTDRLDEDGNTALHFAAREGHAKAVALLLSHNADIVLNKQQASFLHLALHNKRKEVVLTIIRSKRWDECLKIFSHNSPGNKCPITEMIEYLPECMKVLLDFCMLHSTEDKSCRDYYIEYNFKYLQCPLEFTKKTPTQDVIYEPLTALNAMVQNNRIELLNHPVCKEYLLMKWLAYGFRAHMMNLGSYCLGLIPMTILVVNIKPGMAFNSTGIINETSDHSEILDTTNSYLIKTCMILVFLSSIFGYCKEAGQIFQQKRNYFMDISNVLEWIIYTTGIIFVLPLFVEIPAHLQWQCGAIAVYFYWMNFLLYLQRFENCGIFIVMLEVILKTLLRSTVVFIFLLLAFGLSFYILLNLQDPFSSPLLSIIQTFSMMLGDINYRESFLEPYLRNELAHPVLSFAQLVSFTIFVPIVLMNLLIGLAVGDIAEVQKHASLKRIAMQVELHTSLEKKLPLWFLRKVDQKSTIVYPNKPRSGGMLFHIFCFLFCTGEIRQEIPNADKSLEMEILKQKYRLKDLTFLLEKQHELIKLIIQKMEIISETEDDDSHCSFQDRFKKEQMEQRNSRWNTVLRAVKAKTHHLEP
row,IC50 [µM],SMILES
1,0.016,"Cc1nc(Cn2c(=O)c3c(ncn3[C@@H](C)C(=O)Nc3cccc(-c4cnc(C)c(C(F)(F)F)c4)n3)n(C)c2=O)no1 [Compound 151, (S)-2-(3-methyl-1-((5-methyl-1,2,4-oxadiazol-3-yl)methyl)-2,6-dioxo-2,3-dihydro-1H-purin-7(6H)-yl)-N-(6′-methyl-5′-(trifluoromethyl)-2,3′-bipyridin-6-yl)propanamide]"
2,> 3.2,"CC(=O)Cn1c(=O)c2c(ncn2[C@@H](C)C(=O)Nc2ncsc2-c2cnc(C(F)(F)F)nc2)n(C)c1=O [Compound 154, (S)-2-(3-methyl-2,6-dioxo-1-(2-oxopropyl)-2,3-dihydro-1H-purin-7(6H)-yl)-N-(5-(2-(trifluoromethyl)pyrimidin-5-yl)thiazol-4-yl)propanamide]"
3,0.003,"Cc1cc(Cn2c(=O)c3c(ncn3[C@@H](C)C(=O)Nc3cccc(-c4cncc(C(F)(F)F)c4)n3)n(C)c2=O)no1 [Compound 156, (S)-2-(3-methyl-1-((5-methylisoxazol-3-yl)methyl)-2,6-dioxo-2,3-dihydro-1H-purin-7(6H)-yl)-N-(5′-(trifluoromethyl)-2,3′-bipyridin-6-yl)propanamide]"
4,0.006,"CCC(=O)Cn1c(=O)c2c(ncn2[C@@H](C)C(=O)Nc2cncc(-c3cnc(N4CC5CC5C4)cn3)n2)n(C)c1=O (stereo partly drawn) [Compound 158, (2S)—N-(5′-(3-azabicyclo[3.1.0]hexan-3-yl)-[2,2′-bipyrazin]-6-yl)-2-(3-methyl-2,6-dioxo-1-(2-oxobutyl)-2,3-dihydro-1H-purin-7(6H)-yl)propanamide]"
5,0.006,"CCC(=O)Cn1c(=O)c2c(ncn2[C@@H](C)C(=O)Nc2cncc(-c3cnc(N4CC5C(C4)C5(F)F)cn3)n2)n(C)c1=O (stereo partly drawn) [Compound 159, (2S)—N-(5′-(6,6-difluoro-3-azabicyclo[3.1.0]hexan-3-yl)-[2,2′-bipyrazin]-6-yl)-2-(3-methyl-2,6-dioxo-1-(2-oxobutyl)-2,3-dihydro-1H-purin-7(6H)-yl)propanamide]"
6,0.006,"Cc1noc(Cn2c(=O)c3c(ncn3[C@@H](C)C(=O)Nc3csc(-c4cnc(N5CC6CC6C5)nc4)n3)n(C)c2=O)n1 (stereo partly drawn) [Compound 166, (2S)—N-(2-(2-(3-azabicyclo[3.1.0]hexan-3-yl)pyrimidin-5-yl)thiazol-4-yl)-2-(3-methyl-1-((3-methyl-1,2,4-oxadiazol-5-yl)methyl)-2,6-dioxo-2,3-dihydro-1H-purin-7(6H)-yl)propanamide]"
7,0.012,"CC#CCn1c(=O)c2c(ncn2[C@@H](C)C(=O)Nc2cccc(-c3cnc(N4CC5CC5C4)nc3)n2)n(C)c1=O (stereo partly drawn) [Compound 168, (2S)—N-(6-(2-(3-azabicyclo[3.1.0]hexan-3-yl)pyrimidin-5-yl)pyridin-2-yl)-2-(1-(but-2-yn-1-yl)-3-methyl-2,6-dioxo-2,3-dihydro-1H-purin-7(6H)-yl)propanamide]"
8,0.01,"CC#CCn1c(=O)c2c(ncn2[C@@H](C)C(=O)Nc2cccc(-c3cnc(N4CC5C(C4)C5(F)F)nc3)n2)n(C)c1=O (stereo partly drawn) [Compound 169, (2S)-2-(1-(but-2-yn-1-yl)-3-methyl-2,6-dioxo-2,3-dihydro-1H-purin-7(6H)-yl)-N-(6-(2-(6,6-difluoro-3-azabicyclo[3.1.0]hexan-3-yl)pyrimidin-5-yl)pyridin-2-yl)propanamide]"
9,0.023,"Cc1nc(Cn2c(=O)c3c(ncn3[C@@H](C)C(=O)Nc3cccc(-c4cnc(C(F)(F)F)nc4)n3)n(C)c2=O)no1 [Compound 171, (S)-2-(3-methyl-1-((5-methyl-1,2,4-oxadiazol-3-yl)methyl)-2,6-dioxo-2,3-dihydro-1H-purin-7(6H)-yl)-N-(6-(2-(trifluoromethyl)pyrimidin-5-yl)pyridin-2-yl)propanamide]"
10,0.006,"CC#CCn1c(=O)c2c(ncn2[C@@H](C)C(=O)Nc2ccnc(-c3cnc(N4CC5CC5C4)nc3)n2)n(C)c1=O (stereo partly drawn) [Compound 173, (2S)—N-(2′-(3-azabicyclo[3.1.0]hexan-3-yl)-[2,5′-bipyrimidin]-4-yl)-2-(1-(but-2-yn-1-yl)-3-methyl-2,6-dioxo-2,3-dihydro-1H-purin-7(6H)-yl)propanamide]"
11,0.054,"Cc1nc2c(c(=O)n(Cc3ccccn3)c(=O)n2C)n1CC(=O)Nc1cccc(-c2ccc(F)c(F)c2)n1 [Compound 175, N-(6-(3,4-difluorophenyl)pyridin-2-yl)-2-(3,8-dimethyl-2,6-dioxo-1-(pyridin-2-ylmethyl)-2,3-dihydro-1H-purin-7(6H)-yl)acetamide]"

# Further lines, the compound ahead of its results:
row,SMILES,IC50 [µM]
1,"CCC(=O)Cn1c(=O)c2c(ncn2[C@@H](C)C(=O)Nc2cccc(-c3cnc(N4CC5CC5C4)nc3)n2)n(C)c1=O (stereo partly drawn) [Compound 147, (2S)—N-(6-(2-(3-azabicyclo[3.1.0]hexan-3-yl)pyrimidin-5-yl)pyridin-2-yl)-2-(3-methyl-2,6-dioxo-1-(2-oxobutyl)-2,3-dihydro-1H-purin-7(6H)-yl)propanamide]",0.006
2,"Cc1noc(Cn2c(=O)c3c(ncn3[C@@H](C)C(=O)Nc3ccnc(-c4cnc(C(F)(F)F)c(C)c4)n3)n(C)c2=O)n1 [Compound 150, (S)-2-(3-methyl-1-((3-methyl-1,2,4-oxadiazol-5-yl)methyl)-2,6-dioxo-2,3-dihydro-1H-purin-7(6H)-yl)-N-(2-(5-methyl-6-(trifluoromethyl)pyridin-3-yl)pyrimidin-4-yl)propanamide]",0.004
3,"CC(=O)Cn1c(=O)c2c(ncn2[C@@H](C)C(=O)Nc2cncc(-c3cnc(N4CC5CC5C4)nc3)n2)n(C)c1=O (stereo partly drawn) [Compound 152, (2S)—N-(6-(2-(3-azabicyclo[3.1.0]hexan-3-yl)pyrimidin-5-yl)pyrazin-2-yl)-2-(3-methyl-2,6-dioxo-1-(2-oxopropyl)-2,3-dihydro-1H-purin-7(6H)-yl)propanamide]",0.007
4,"CC#CCn1c(=O)c2c(ncn2[C@@H](C)C(=O)Nc2csc(-c3cnc(N4CCC[C@@H]4C(F)(F)F)nc3)n2)n(C)c1=O [Compound 157, (S)-2-(1-(but-2-ynyl)-3-methyl-2,6-dioxo-2,3-dihydro-1H-purin-7(6H)-yl)-N-(2-(2-((R)-2-(trifluoromethyl)pyrrolidin-1-yl)pyrimidin-5-yl)thiazol-4-yl)propanamide]",0.001
5,"Cc1cc(-c2nc(NC(=O)[C@H](C)n3cnc4c3c(=O)n(CC(F)(F)F)c(=O)n4C)cs2)cnc1C(F)(F)F [Compound 161, (S)-2-(3-methyl-2,6-dioxo-1-(2,2,2-trifluoroethyl)-2,3-dihydro-1H-purin-7(6H)-yl)-N-(2-(5-methyl-6-(trifluoromethyl)pyridin-3-yl)thiazol-4-yl)propanamide]",0.219
6,"Cc1ncc(-c2nc(NC(=O)[C@H](C)n3cnc4c3c(=O)n(CC(F)(F)F)c(=O)n4C)cs2)cc1C(F)(F)F [Compound 162, (S)-2-(3-methyl-2,6-dioxo-1-(2,2,2-trifluoroethyl)-2,3-dihydro-1H-purin-7(6H)-yl)-N-(2-(6-methyl-5-(trifluoromethyl)pyridin-3-yl)thiazol-4-yl)propanamide]",0.022
7,"Cc1nc(Cn2c(=O)c3c(ncn3[C@@H](C)C(=O)Nc3csc(-c4cnc(C)c(C(F)(F)F)c4)n3)n(C)c2=O)no1 [Compound 163, (S)-2-(3-methyl-1-((5-methyl-1,2,4-oxadiazol-3-yl)methyl)-2,6-dioxo-2,3-dihydro-1H-purin-7(6H)-yl)-N-(2-(6-methyl-5-(trifluoromethyl)pyridin-3-yl)thiazol-4-yl)propanamide]",0.002
8,"CC(=O)Cn1c(=O)c2c(ncn2[C@@H](C)C(=O)Nc2cncc(-c3cnc(N4CC5C(C4)C5(F)F)cn3)n2)n(C)c1=O (stereo partly drawn) [Compound 164, (2S)—N-(5′-(6,6-difluoro-3-azabicyclo[3.1.0]hexan-3-yl)-[2,2′-bipyrazin]-6-yl)-2-(3-methyl-2,6-dioxo-1-(2-oxopropyl)-2,3-dihydro-1H-purin-7(6H)-yl)propanamide]",0.021
9,"COCC(=O)Cn1c(=O)c2c(ncn2[C@@H](C)C(=O)Nc2cccc(-c3cnc(N4CC5CC5C4)nc3)n2)n(C)c1=O (stereo partly drawn) [Compound 165, (2S)—N-(6-(2-(3-azabicyclo[3.1.0]hexan-3-yl)pyrimidin-5-yl)pyridin-2-yl)-2-(1-(3-methoxy-2-oxopropyl)-3-methyl-2,6-dioxo-2,3-dihydro-1H-purin-7(6H)-yl)propanamide]",0.007
10,"Cc1noc(Cn2c(=O)c3c(ncn3[C@@H](C)C(=O)Nc3cccc(-c4cnc(N5CC6CC6C5)nc4)n3)n(C)c2=O)n1 (stereo partly drawn) [Compound 167, (2S)—N-(6-(2-(3-azabicyclo[3.1.0]hexan-3-yl)pyrimidin-5-yl)pyridin-2-yl)-2-(3-methyl-1-((3-methyl-1,2,4-oxadiazol-5-yl)methyl)-2,6-dioxo-2,3-dihydro-1H-purin-7(6H)-yl)propanamide]",0.004
11,"Cc1nc(Cn2c(=O)c3c(ncn3[C@@H](C)C(=O)Nc3cncc(-c4cnc(C)c(C(F)(F)F)c4)n3)n(C)c2=O)no1 [Compound 170, (S)-2-(3-methyl-1-((5-methyl-1,2,4-oxadiazol-3-yl)methyl)-2,6-dioxo-2,3-dihydro-1H-purin-7(6H)-yl)-N-(6-(6-methyl-5-(trifluoromethyl)pyridin-3-yl)pyrazin-2-yl)propanamide]",0.027
12,"Cc1nc2c(c(=O)n(Cc3ccccn3)c(=O)n2C)n1CC(=O)Nc1cccc(-c2ccc(Cl)cc2)n1 [Compound 174, N-(6-(4-chlorophenyl)pyridin-2-yl)-2-(3,8-dimethyl-2,6-dioxo-1-(pyridin-2-ylmethyl)-2,3-dihydro-1H-purin-7(6H)-yl)acetamide]",0.024
13,"Cc1nc2c(c(=O)n(Cc3ccccn3)c(=O)n2C)n1CC(=O)Nc1cccc(-c2cnc(C(F)(F)F)nc2)n1 [Compound 177, 2-(3,8-dimethyl-2,6-dioxo-1-(pyridin-2-ylmethyl)-2,3-dihydro-1H-purin-7(6H)-yl)-N-(6-(2-(trifluoromethyl)pyrimidin-5-yl)pyridin-2-yl)acetamide]",0.042
14,"Cn1c(=O)n(Cc2ccccn2)c(=O)c2c1ncn2CC(=O)Nc1csc(-c2ccc(F)c(F)c2)n1 [Compound 178, N-(2-(3,4-difluorophenyl)thiazol-4-yl)-2-(3-methyl-2,6-dioxo-1-(pyridin-2-ylmethyl)-2,3-dihydro-1H-purin-7(6H)-yl)acetamide]",0.014
